Tests used:
Escherichia coli [1] = assay: Antimicrobial activity against Escherichia coli GC 2203 in presence of 4 ug/mL piperacillin; format: functional
Pseudomonas aeruginosa = assay: Antimicrobial activity against Pseudomonas aeruginosa GC 1764 expressing AmpC in presence of 4 ug/mL piperacillin; format: functional
Enterobacter cloacae [2] = assay: Antimicrobial activity against Enterobacter cloacae GC 1475 expressing P99 in presence of 4 ug/mL piperacillin; format: functional
Escherichia coli [3] = assay: Antimicrobial activity against Escherichia coli GC 2804 expressing Imp in presence of 4 ug/mL piperacillin; format: functional
Serratia marcescens [4] = assay: Antimicrobial activity against Serratia marcescens GC 1781 expressing Sme1 and AmpC in presence of 4 ug/mL piperacillin; format: functional
Escherichia coli [5] = assay: Antimicrobial activity against Escherichia coli GC 2252 expressing IRT2 in presence of 4 ug/mL piperacillin; format: functional
Beta-lactamase = Beta-lactamase (Enterobacter cloacae, UniProt P05364)
Sequence of Beta-lactamase (P05364 whole entry): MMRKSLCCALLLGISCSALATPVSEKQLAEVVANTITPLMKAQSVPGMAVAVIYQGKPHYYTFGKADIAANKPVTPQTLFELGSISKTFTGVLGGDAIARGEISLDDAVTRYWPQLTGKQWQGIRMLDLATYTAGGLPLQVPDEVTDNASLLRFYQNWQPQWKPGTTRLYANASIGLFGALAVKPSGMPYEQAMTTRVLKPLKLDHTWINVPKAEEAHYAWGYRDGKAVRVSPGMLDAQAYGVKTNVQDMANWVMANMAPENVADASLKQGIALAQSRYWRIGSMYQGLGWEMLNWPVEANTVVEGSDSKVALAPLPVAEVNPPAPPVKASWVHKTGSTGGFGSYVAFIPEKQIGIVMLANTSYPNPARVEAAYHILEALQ
Description: Inhibition of Enterobacter cloacae AmpC

Enterobacter cloacae [6] = assay: Antimicrobial activity against Enterobacter cloacae GC 1477 expressing AmpC in presence of 4 ug/mL piperacillin; format: functional
Escherichia coli [7] = assay: Antimicrobial activity against Escherichia coli GC 2920 expressing IRT2 in presence of 4 ug/mL piperacillin; format: functional
Escherichia coli [8] = assay: Antimicrobial activity against Escherichia coli GC 2844 in presence of 4 ug/mL piperacillin; format: functional
Serratia marcescens [9] = assay: Antimicrobial activity against Serratia marcescens GC 4142 expressing AmpC in presence of 4 ug/mL piperacillin; format: functional
Escherichia coli [10] = assay: Antimicrobial activity against Escherichia coli GC 2847 expressing TEM1 in presence of 4 ug/mL piperacillin; format: functional
Staphylococcus aureus = assay: Antimicrobial activity against Staphylococcus aureus GC 2216 in presence of 4 ug/mL piperacillin; format: functional
Escherichia coli [11] = assay: Antimicrobial activity against Escherichia coli GC 2805 expressing CcrA in presence of 4 ug/mL piperacillin; format: functional
Enterobacter cloacae [12] = assay: Antimicrobial activity against Enterobacter cloacae GC 2071 expressing Imi1 and AmpC in presence of 4 ug/mL piperacillin; format: functional
Klebsiella pneumoniae = assay: Antimicrobial activity against Klebsiella pneumoniae GC 2825 in presence of 4 ug/mL piperacillin; format: functional
[13] = molecular target: Metallo-beta-lactamase type 2 (Bacteroides fragilis, UniProt P25910); assay: Inhibition of Bacteroides fragilis CcrA
Sequence of Metallo-beta-lactamase type 2 (P25910 whole entry): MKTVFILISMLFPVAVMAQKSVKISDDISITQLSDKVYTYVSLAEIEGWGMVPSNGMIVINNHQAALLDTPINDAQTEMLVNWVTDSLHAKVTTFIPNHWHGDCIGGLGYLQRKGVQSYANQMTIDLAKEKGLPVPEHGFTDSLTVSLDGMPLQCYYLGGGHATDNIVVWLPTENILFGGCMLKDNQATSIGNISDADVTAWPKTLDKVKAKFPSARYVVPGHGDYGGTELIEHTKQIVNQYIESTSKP

Beta-lactamase TEM = Beta-lactamase TEM (Escherichia coli, UniProt P62593); assay: Inhibition of Escherichia coli TEM1
Sequence of Beta-lactamase TEM (P62593 whole entry): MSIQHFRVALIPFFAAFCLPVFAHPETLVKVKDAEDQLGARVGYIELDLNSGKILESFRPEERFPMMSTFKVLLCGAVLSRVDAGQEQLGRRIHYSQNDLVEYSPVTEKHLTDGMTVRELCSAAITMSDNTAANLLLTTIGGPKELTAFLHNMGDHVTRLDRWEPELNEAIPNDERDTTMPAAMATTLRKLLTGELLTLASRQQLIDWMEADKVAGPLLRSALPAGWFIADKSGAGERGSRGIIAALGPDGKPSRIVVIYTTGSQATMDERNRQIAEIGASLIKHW

Beta-lactamase SHV-1 = molecular target: T1, Beta-lactamase SHV-1 (Escherichia coli, UniProt P0AD63); assay: Inhibition of Escherichia coli SHV1
T1 sequence (P0AD63 whole entry): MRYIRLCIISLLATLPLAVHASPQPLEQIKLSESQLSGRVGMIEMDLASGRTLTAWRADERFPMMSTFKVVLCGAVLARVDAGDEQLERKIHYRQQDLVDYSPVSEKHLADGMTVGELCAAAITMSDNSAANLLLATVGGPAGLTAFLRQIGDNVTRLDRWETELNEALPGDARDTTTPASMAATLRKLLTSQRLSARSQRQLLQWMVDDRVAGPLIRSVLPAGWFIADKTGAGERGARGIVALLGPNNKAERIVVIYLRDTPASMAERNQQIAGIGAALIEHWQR

[14] = Inhibition of Enterobacter cloacae class C beta lactamase GC1

Row | SMILES | MIC (Escherichia coli [1]) [µg/mL] | MIC (Pseudomonas aeruginosa) [µg/mL] | MIC (Enterobacter cloacae [2]) [µg/mL] | MIC (Escherichia coli [3]) [µg/mL] | MIC (Serratia marcescens [4]) [µg/mL] | MIC (Escherichia coli [5]) [µg/mL] | IC50 (Beta-lactamase) [nM] | MIC (Enterobacter cloacae [6]) [µg/mL] | MIC (Escherichia coli [7]) [µg/mL] | MIC (Escherichia coli [8]) [µg/mL] | MIC (Serratia marcescens [9]) [µg/mL] | MIC (Escherichia coli [10]) [µg/mL] | MIC (Staphylococcus aureus) [µg/mL] | MIC (Escherichia coli [11]) [µg/mL] | MIC (Enterobacter cloacae [12]) [µg/mL] | MIC (Klebsiella pneumoniae) [µg/mL] | IC50 [13] [nM] | IC50 (Beta-lactamase TEM) [nM] | IC50 (Beta-lactamase SHV-1) [nM] | IC50 [14] [nM]
1 | O=C([O-])C1=CS[C@@H]2/C(=C\c3cn4c(n3)sc3ccccc34)C(=O)N12.[Na+] | 2 | 4 | 8 | < 0.06 | 0.5 | 8 | 1 | 16 | 2 | 2 | 1 | 2 | < 0.06 | > 64 | 2 | 16 | – | – | – | –
2 | Cc1cccc2sc3nc(/C=C4/C(=O)N5C(C(=O)[O-])=CS[C@H]45)cn3c12.[Na+] | 2 | 2 | 16 | < 0.06 | 4 | 16 | 2 | 32 | 2 | 2 | 4 | 8 | < 0.06 | > 64 | 16 | 16 | 370 | 9 | – | –
3 | COc1ccc2c(c1)sc1nc(/C=C3/C(=O)N4C(C(=O)[O-])=CS[C@H]34)cn12.[Na+] | 1 | 32 | 16 | < 0.06 | 2 | 8 | 2 | 64 | 2 | 2 | 2 | 16 | < 0.06 | > 64 | 16 | 64 | – | – | – | –
4 | C[C@]1(Cn2ccnn2)[C@H](C(=O)[O-])N2C(=O)C[C@H]2S1(=O)=O.[Na+] [TAZOBACTAM SODIUM] | > 64 | > 64 | > 64 | 0.12 | 1 | 2 | – | > 64 | 4 | 2 | > 64 | 2 | 64 | > 64 | > 64 | > 64 | – | – | – | –
5 | O=C([O-])C1=CS[C@@H]2/C(=C\c3cn4c(n3)sc3cc(Cl)ccc34)C(=O)N12.[Na+] | 1 | 16 | 8 | < 0.06 | 1 | 16 | 3 | 16 | 1 | 2 | 2 | 4 | < 0.06 | > 64 | 8 | 32 | 74 | 6 | – | –
6 | O=C([O-])C1=CS[C@@H]2/C(=C\c3cn4c5c(sc4n3)CCC5)C(=O)N12.[Na+] | 2 | 2 | 16 | < 0.06 | 1 | 8 | 2 | 16 | 2 | 2 | 2 | 4 | 2 | > 64 | 4 | 4 | – | – | 12 | 3.8
7 | Cc1ccc2c(c1)sc1nc(/C=C3/C(=O)N4C(C(=O)[O-])=CS[C@H]34)cn12.[Na+] | 1 | 16 | 8 | < 0.06 | 0.5 | 16 | 1 | 32 | 2 | 2 | 1 | 4 | < 0.06 | > 64 | 8 | 8 | 103 | 3 | – | –
8 | O=C([O-])C1=CS[C@@H]2/C(=C\c3cn4c(n3)sc3cc(F)ccc34)C(=O)N12.[Na+] | 2 | 4 | 16 | < 0.06 | 2 | 16 | 2 | 32 | 2 | 2 | 2 | 8 | < 0.06 | > 64 | 8 | 16 | – | 8 | – | –

From ChEMBL document CHEMBL1149281, “Structure-activity relationship of 6-methylidene penems bearing tricyclic heterocycles as broad-spectrum beta-lactamase inhibitors: crystallographic structures show unexpected binding of 1,4-thiazepine intermediates” (J Med Chem, 2004)
